Reference: patent US20230339915A1 (Vertex Pharmaceuticals Incorporated, priority 2020, published 2023)

Assays:
[1] = target: NL20 human bronchial epithelial cells expressing human Z-AAT (Homo sapiens (Human), UniProt P01009, E366K); assay: AAT Function Assay (MSD Assay NL20-SI Cell Line); type: cell-based; conditions: functionally active AAT (AAT-hNE complex, MSD) in supernatant of NL20 cells expressing human Z-AAT; read-out: NL20 Functional EC50
Experimental: A. AAT Function Assay (MSD Assay NL20-SI Cell Line)
Alpha-1 antitrypsin (AAT) is a SERpIN (serine protease inhibitor) that inactivates enzymes by binding to them covalently. This assay measured the amount of functionally active AAT in a sample in the presence of the disclosed Compounds 1-227 by determining the ability of AAT to form an irreversible complex with human neutrophil Elastase (hNE). In practice, the sample (cell supernatant, blood sample, or other) was incubated with excess hNE to allow AAT-Elastase complex to be formed with all functional AAT in the sample. This complex was then captured to a microplate coated with an anti-AAT antibody. The complex captured to the plate was detected with a labeled anti-Elastase antibody and quantitated using a set of AAT standards spanning the concentration range present in the sample. Meso Scale Discovery (MSD) plate reader, Sulfo-tag labeling, and microplates were used to provide high sensitivity and wide dynamic range.
Instrument(S): • Meso Sector S600 • Bravo • Washer dispenser • Multidrop Combi
Day 1 Cell Culture • 1. Harvest NL20 human bronchial epithelial cells expressing human Z-AAT in OptiMEM™ containing Pen/Strep (P/S) • 2. Seed at 16,000 cells/well in 30 μL (384 well plate) • 3. Centrifuge plates briefly up to speed (1200 rpm) and place into 37° C. incubator overnight
Day 2: Compound Addition and Coating Plates with Capture Antibody
Compound Addition: • 1. Dispense 40 μL of OptiMEM™ (P/S) with doxycycline (1:1000 stock=0.1 μM final) to each well of the compound plate using a multidrop Combi in hood • 2. Remove cell plate from incubator, flip/blot and take immediately to Bravo to transfer compounds • 3. Return plates to incubator overnight
Coat MSD Plates • 1. Dilute capture antibody (Polyclonal Goat anti-AAT) to 5 μg/mL (1:200) in PBS (no BSA). • 2. Dispense 25 μL of diluted capture antibody into all wells of MSD 384-well High Bind plate using the Multidrop equipped with a standard cassette. • 3. Incubate overnight at 4° C.
Prepare Blocker A (BSA) Solutions • 1. Prepare solution of 5% MSD Blocker A (BSA) following the manufacturer's instructions. • 2. Further dilute the 5% MSD Blocker A in PBS to 1% (Blocker A) as needed.
Block Plates • 1. Wash plate 1× with 50 μL Wash buffer (PBS+0.5% Tween 20), and adds 35 μL 5% Block A buffer to block non-specific binding on washer dispenser • 2. Rotate plates on shaker for 1 hour at 600 rpm
Prepare M-AA T Standards • 1. Dilute M-AAT stock to 1.6 μg/mL in 1% BSA Blocker A (Stock in −70° C.); then prepare 12×1:2 serial dilutions in 1% Blocker A • 2. The top starting final concentration on MSD plate is 320 ng/mL. These dilutions correspond to a final concentration of 320, 160, 80, 40, 20, 10, 5, 2.5, 1.25, 0.625, 0.312, 0.156 ng/mL.
Dilution Plate • 1. Add 80 μL of 1% Assay buffer to all wells except columns 1/24 (standards) with Multidrop Combi • 2. Add diluted standards to columns 1 and 24 • 3. Centrifuge dilution plates 1200 rpm briefly
Cell Plate • 1. Aspirate columns which will have the standards from the cell plates in the hood using 16-pin aspirator
Prepare Human Neutrophil Elastase (hNE) • 1. Prepare 1 μg/mL Human Neutrophil Elastase by diluting in 1% Blocker A. • a. Small 100 μg vial—add 1 mL PBS (100 μg/mL) • i. This can then be diluted 1:100 in 1% Assay Buffer for a final 1 μg/mL concentration
MSD—add hNE (20 μL/well) • 1. After the MSD plate has blocked for at least 1 hour, wash plate 1× with 50 μL Wash buffer (PBS+0.5% Tween 20) and then add 20 μL hNE to each well
Bravo—Cell Plate—Dilution Plate—MSD Plate
Using the Bravo aspirate 10 μL from the cell plate, transfer to the dilution plate (9-fold dilution) • 1. Mix 25 μL 3×, then aspirate 5 μL, transfer to MSD plate (5-fold dilution) • 2. Mix 10 μL 3×. Total dilution is 45 fold. • 3. Shake plates at 600 rpm for 1.5 hours
Add Functional Detection hNE Antibody • 1. Wash plate 1× with wash buffer • 2. […]

[2] = target: purified Z-AAT protein from human plasma (Homo sapiens (Human), UniProt P01009, E366K); assay: Biochemical Assay (Z-AAT Elastase Activity Assay); conditions: purified Z-AAT pre-incubated with compound 1 hour, then human neutrophil elastase and fluorescent substrate
Sequence of purified Z-AAT protein from human plasma (P01009 25-418 E366K limits assumed): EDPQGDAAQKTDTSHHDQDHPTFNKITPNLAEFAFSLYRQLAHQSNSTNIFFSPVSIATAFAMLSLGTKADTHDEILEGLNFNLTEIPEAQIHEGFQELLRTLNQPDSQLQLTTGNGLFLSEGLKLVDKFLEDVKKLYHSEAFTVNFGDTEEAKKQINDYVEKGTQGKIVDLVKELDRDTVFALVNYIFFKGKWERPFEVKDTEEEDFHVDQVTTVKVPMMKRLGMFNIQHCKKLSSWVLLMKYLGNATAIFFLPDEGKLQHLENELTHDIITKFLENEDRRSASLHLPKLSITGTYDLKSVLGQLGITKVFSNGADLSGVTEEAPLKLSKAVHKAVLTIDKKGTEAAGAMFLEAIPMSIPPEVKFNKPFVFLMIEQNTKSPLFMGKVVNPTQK
From the text: B. Biochemical Assay (Z-AAT Elastase Activity Assay)
This assay measured the modulation of Compounds 1-227 on Z-AAT SERpIN activity using purified Z-AAT protein and purified human neutrophil elastase (hNE). Normally, when active monomeric Z-AAT encounters a protease such as trypsin or elastase, it forms a 1:1 covalent “suicide” complex in which both the AAT and protease are irreversibly inactivated. However, compounds binding to Z-AAT can lead to a decrease in SERpIN activity. In such cases, when a protease encounters compound-bound Z-AAT, the protease cleaves and inactivates Z-AAT without itself being inactivated.
Reagents • PBS buffer (media prep)+0.01% BRIJ35 detergent (Calbiochem catalog #203728) Opti-MEM media (Fisher 11058-021) • Human neutrophil elastase (hNE, Athens Research #16-14-051200) • 3.4 μM stock (0.1 mg/mL) prepared in 50 mM Na Acetate, pH 5.5, 150 mM NaCl, stored at −80° C. • Elastase substrate V (ES V, fluorescent peptide substrate MeOSuc-Ala-Ala-Pro-Val-AMC, Calbiochem catalog #324740) • 20 mM stock in DMSO, stored at −20° C. • Purified Z-AAT protein from human plasma; • 12.9 μM (0.67 mg/mL) Z-AAT Vertex Cambridge Sample 4942, from patient • #061-SSN, stored at −80 C
Plates • Corning 4511 (384 well black low volume)
Instruments • PerkinElmer® EnVision™
Pre-Incubation of Z-AAT with Compounds • 1. 7.5 μL of Z-AAT (20 nM) was incubated with compounds 1-227 in a GCA plate for 1 hour at room temperature
Addition of hNE • 1. 7.5 ul of HNE solution (3 nM in PBS+0.01% BRIJ35) added into GCA plate • 2. Incubate plate for 30 minutes to allow Z-AAT/HNE suicide complex formation.
Addition of Substrate and Read Plate on PE Envision • 1. 7.5 μL of substrate (300 μM solution of elastase substrate (ES V) in PBS+0.01% BRIJ35) dispensed per well into GCA plate • 2. Immediately read on Envision.

Sequence of NL20 human bronchial epithelial cells expressing human Z-AAT (P01009 25-418 E366K limits assumed): as above

Row | SMILES | EC50 [1] [µM] | IC50 [2] [µM]
1 | Cc1cc(-n2c(C(C)C)c([C@@H]3COCC3C(=O)O)c3cc(O)ccc32)ccc1F (mixture of isomers) [Compound 82] | > 2 | > 30
2 | Cc1cc(-n2c(C(C)C)c([C@H]3CC[C@@H](C(=O)O)C3)c3cc(O)ccc32)ccc1F (racemic) [Compound 74] | > 2 | > 30
3 | Cc1cc(-n2c(C(C)C)c([C@H]3CC[C@H](C(=O)O)C3)c3cc(O)ccc32)ccc1F (racemic) [Compound 79] | 0.5 to 2 | > 5
4 | Cc1cc(-n2c(C(C)C)c([C@@H]3COC[C@@H]3C(=O)O)c3cc(O)ccc32)ccc1F (racemic) [Compound 83] | > 2 | > 30
5 | Cc1cc(-n2c(C3CCOCC3)c([C@H]3CCC[C@@H](CC(=O)O)C3)c3cc(O)ccc32)ccc1F (racemic) [Compound 105, cis-2-(3-(1-(4-fluoro-3-methylphenyl)-5-hydroxy-2-(tetrahydro-2H-pyran-4-yl)-1H-indol-3-yl)cyclohexyl)acetic acid] | 0.5 to 2 | > 30
6 | CCC(O)c1c(C#N)c2cc(O)ccc2n1-c1ccc(F)cc1 (racemic) [Compound 189, 1-(4-fluorophenyl)-5-hydroxy-2-(1-hydroxypropyl)indole-3-carbonitrile] | > 2 | > 30
7 | CCC(OC)c1c(C#N)c2cc(O)ccc2n1-c1ccc(F)cc1 (racemic) [Compound 190, 1-(4-fluorophenyl)-5-hydroxy-2-(1-methoxypropyl)indole-3-carbonitrile] | 0.5 to 2 | > 5
8 | Cc1cc(-n2c(C3CCOCC3)c([C@H]3C[C@@H]3C(=O)O)c3cc(O)ccc32)ccc1F (relative stereo) [Compound 124, trans-2-[1-(4-fluoro-3-methyl-phenyl)-5-hydroxy-2-tetrahydropyran-4-yl-indol-3-yl]cyclopropanecarboxylic acid] | > 2 | > 30
9 | O=C(O)[C@H]1CCC[C@@H](c2c(C3CCOCC3)n(-c3ccc(F)c(F)c3)c3ccc(O)cc23)C1 (relative stereo) [Compound 136, cis-3-(1-(3,4-difluorophenyl)-5-hydroxy-2-(tetrahydro-2H-pyran-4-yl)-1H-indol-3-yl)cyclohexane-1-carboxylic acid] | 0.5 to 2 | > 30
10 | Cc1cc(-n2c(C(C)C)c(CC(C)C(=O)O)c3cc(O)ccc32)ccc1F (single isomer, unassigned) [Compound 101] | > 2 | > 30
11 | Cc1cc(-n2c(C(C)C)c(CC(C)C(=O)O)c3cc(O)ccc32)ccc1F (single isomer, unassigned) [Compound 102] | > 2 | > 30
12 | Cc1cc(-n2c(C(C)C)c(C3CC(F)(C(=O)O)C3)c3cc(O)ccc32)ccc1F (single isomer, unassigned) [Compound 150] | 0.5 to 2 | > 5
13 | Cc1cc(-n2c(C3CCOCC3)c([C@H]3CC[C@H](C(=O)O)CC3)c3cc(O)ccc32)ccc1F [Compound 1, trans-4-(1-(4-fluoro-3-methylphenyl)-5-hydroxy-2-(tetrahydro-2H-pyran-4-yl)-1H-indol-3-yl)cyclohexane-1-carboxylic acid] |  | > 30
14 | Cc1cc(-n2c(C3CCOCC3)c(C3CCCC(C(=O)O)C3)c3cc(O)ccc32)ccc1F (stereo not shown) [Compound 3] | 0.5 to 2 | > 30
15 | Cc1cc(-n2c(C3CCOCC3)c(CC34CC(C(=O)O)(C3)C4)c3cc(O)ccc32)ccc1F [Compound 4] | > 2 | > 30
16 | Cc1cc(-n2c(C3CCOCC3)c(C[C@H]3CC[C@H](C(=O)O)CC3)c3cc(O)ccc32)ccc1F [Compound 5] | > 2 | > 30
17 | Cc1cc(-n2c(C(C)C)c(C3CC(C(=O)O)C3)c3cc(O)ccc32)ccc1F (stereo not shown) [Compound 6] | > 2 | > 30
18 | Cc1cc(-n2c(C3CCOCC3)c(C[C@H]3C[C@H](C(=O)O)C3)c3cc(O)ccc32)ccc1F [Compound 7] | > 2 | > 30
19 | Cc1cc(-n2c(C(C)C)c([C@H]3C[C@@H]3C(=O)O)c3cc(O)c(F)cc32)ccc1F [Compound 129] | 0.5 to 2 | 
20 | Cc1cc(-n2c(C(C)C)c(C3CC3(C)C(=O)O)c3cc(O)ccc32)ccc1F (stereo not shown) [Compound 130] | 0.5 to 2 | 
21 | Cc1cc(-n2c(C(C)C)c(-c3ccc(C(=O)O)cc3)c3cc(O)ccc32)ccc1F [Compound 167] | < 0.5 | 
22 | Cc1cc(-n2c(C(C)C)c(-c3ccc(C(=O)O)cc3C)c3cc(O)ccc32)ccc1F [Compound 170] | 0.5 to 2 | 
23 | Cc1c(C#N)c2cc(O)ccc2n1-c1ccc(F)cc1 [Compound 182, 1-(4-fluorophenyl)-5-hydroxy-2-methyl-1H-indole-3-carbonitrile] | > 2 | 
24 | Cc1c(C(C)C#N)c2cc(O)ccc2n1-c1ccc(F)cc1 (stereo not shown) [Compound 183, 2-(1-(4-fluorophenyl)-5-hydroxy-2-methyl-1H-indol-3-yl)propanenitrile] | > 2 | 
25 | Cc1cc(-n2c(C(C)C)c([C@H]3C[C@H](c4n[nH]c(=O)o4)C3)c3cc(O)ccc32)ccc1F [Compound 221, Trans-5-[3-[1-(4-fluoro-3-methyl-phenyl)-5-hydroxy-2-isopropyl-indol-3-yl]cyclobutyl]-3H-1,3,4-oxadiazol-2-one] | > 2 | 
26 | Cc1cc(-n2c(C(C)C)c([C@H]3C[C@@H](c4n[nH]c(=O)o4)C3)c3cc(O)ccc32)ccc1F [Compound 222, cis-5-[3-[1-(4-fluoro-3-methyl-phenyl)-5-hydroxy-2-isopropyl-indol-3-yl]cyclobutyl]-3H-1,3,4-oxadiazol-2-one] | > 2 | 
